Patent US11180474B2 (BRISTOL-MYERS SQUIBB COMPANY, priority 2016, dated 2021)
Structures can show the parent of a compound that is named as a salt.

Target: T1, human TLR9 (Homo sapiens, UniProt Q9NR96)
T1 construct: host or cells: HEK-Blue cells
T1 sequence (Q9NR96 26-1032): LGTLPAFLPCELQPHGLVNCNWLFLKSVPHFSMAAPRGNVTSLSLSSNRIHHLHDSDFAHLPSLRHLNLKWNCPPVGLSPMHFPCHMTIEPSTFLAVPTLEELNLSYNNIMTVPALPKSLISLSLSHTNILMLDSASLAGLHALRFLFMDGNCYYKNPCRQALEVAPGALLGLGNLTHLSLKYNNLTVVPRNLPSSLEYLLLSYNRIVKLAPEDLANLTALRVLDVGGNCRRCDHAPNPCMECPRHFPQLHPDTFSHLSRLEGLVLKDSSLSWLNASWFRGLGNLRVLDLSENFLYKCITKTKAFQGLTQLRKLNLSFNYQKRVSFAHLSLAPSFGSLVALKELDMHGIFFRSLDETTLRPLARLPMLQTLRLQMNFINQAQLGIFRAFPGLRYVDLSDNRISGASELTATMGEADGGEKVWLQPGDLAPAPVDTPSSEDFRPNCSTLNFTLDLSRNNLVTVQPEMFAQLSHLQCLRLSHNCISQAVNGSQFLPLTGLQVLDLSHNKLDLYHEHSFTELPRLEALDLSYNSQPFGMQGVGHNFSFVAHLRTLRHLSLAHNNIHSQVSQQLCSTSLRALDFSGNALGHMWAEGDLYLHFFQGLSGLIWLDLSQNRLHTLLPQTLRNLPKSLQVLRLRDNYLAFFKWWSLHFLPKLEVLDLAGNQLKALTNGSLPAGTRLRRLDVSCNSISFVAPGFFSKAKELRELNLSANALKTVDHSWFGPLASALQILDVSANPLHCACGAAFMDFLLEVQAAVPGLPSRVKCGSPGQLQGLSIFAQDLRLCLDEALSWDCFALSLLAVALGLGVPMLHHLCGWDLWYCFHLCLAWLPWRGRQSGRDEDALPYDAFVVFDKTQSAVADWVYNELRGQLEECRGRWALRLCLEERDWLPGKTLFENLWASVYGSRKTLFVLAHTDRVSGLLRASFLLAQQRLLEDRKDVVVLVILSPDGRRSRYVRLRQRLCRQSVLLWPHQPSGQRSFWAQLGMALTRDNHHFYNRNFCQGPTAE
Test: TLR9 inhibition reporter assay (HEK-Blue cells, SEAP reporter, ODN2006 stimulation)
Format: cell-based
Details: HEK-Blue cells overexpressing human TLR9, ODN2006 5 nM
Procedure, shortened: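 Dose–response from 0.05 nM to 50 μM was run in HEK-Blue human TLR7, TLR8 and TLR9 reporter cells. After 30 min at room temperature with compound, ligand was added (TLR7 gardiquimod 7.5 μM; TLR8 R848 15.9 μM; TLR9 ODN2006 5 nM) and SEAP measured next day, at 22 h.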

## CCc1c(-c2ccc(OC)c(OC)c2)[nH]c2ccc(C3CCN(C4CCN(Cc5cc6ccccc6n5C)CC4)CC3)cc12 [Example 137, 2-(3,4-dimethoxyphenyl)-3-ethyl-5-(1′-((1-methyl-1H-indol-2-yl)methyl)-[1,4′-bipiperidin]-4-yl)-1H-indole]
  IC50: 2600 nM

## COc1ccc(-c2[nH]c3ccc(C4CCN(C(=O)CN5CCC(N6CCCCC6)CC5)CC4)cc3c2C(C)C)cc1OC [Example 211, 2-([1,4′-bipiperidin]-1′-yl)-1-(4-(2-(3,4-dimethoxyphenyl)-3-isopropyl-1H-indol-5-yl)piperidin-1-yl)ethan-1-one]
  IC50: 990 nM

## CCc1c(-c2ccc(OC)c(OC)c2)[nH]c2ccc(C3CCN(C4CCN(Cc5ccn(C)n5)CC4)CC3)cc12 [Example 133, 2-(3,4-dimethoxyphenyl)-3-ethyl-5-(1′-((1-methyl-1H-pyrazol-3-yl)methyl)-[1,4′-bipiperidin]-4-yl)-1H-indole]
  IC50: 657 nM

## CCCc1c(-c2ccc(OC)c(OC)c2)[nH]c2ccc(C3CCN(C4CCN(CC(C)C)CC4)CC3)cc12 [Example 121, 2-(3,4-dimethoxyphenyl)-5-(1′-isobutyl-[1,4′-bipiperidin]-4-yl)-3-propyl-1H-indole-di-trifluoroacetic acid]
  IC50: 378 nM

## CCc1c(-c2ccc(OC)c(OC)c2)[nH]c2ccc(C3CCN(C4CCN(Cc5cc(C)n[nH]5)CC4)CC3)cc12 [Example 131, 2-(3,4-dimethoxyphenyl)-3-ethyl-5-(1′-((3-methyl-1H-pyrazol-5-yl)methyl)-[1,4′-bipiperidin]-4-yl)-1H-indole]
  IC50: 447 nM

## COc1ccc(-c2[nH]c3cc(C)c(C4CCNCC4)cc3c2C(C)C)cc1OC [Example 205, 2-(3,4-dimethoxyphenyl)-3-isopropyl-6-methyl-5-(piperidin-4-yl)-1H-indole]
  IC50: 966 nM

## COc1ccc(-c2[nH]c3ccc(C4CCNCC4)cc3c2C(C)C)cc1OC [Example 194, 2-(3,4-dimethoxyphenyl)-3-isopropyl-5-(piperidin-4-yl)-1H-indole hydrochloride]
  IC50: 5010 nM

## COc1ccc(-c2[nH]c3ccc(C4CCN(C5CCN(C(C)C)CC5)CC4)cc3c2C)cc1OC [Example 10, 2-(3,4-dimethoxyphenyl)-5-(1′-isopropyl-[1,4′-bipiperidin]-4-yl)-3-methyl-1H-indole]
  IC50: 202 nM

## COc1ccc(-c2[nH]c3ccc(C4CCN(C5CCN(C6CCCC6)CC5)CC4)cc3c2C(C)C)cc1OC [Example 202, 5-(1′-cyclopentyl-[1,4′-bipiperidin]-4-yl)-2-(3,4-dimethoxyphenyl)-3-isopropyl-1H-indole]
  IC50: 340 nM

## CNCCN1CCC(c2ccc3[nH]c(-c4ccc(OC)c(OC)c4)c(CC(C)C)c3c2)CC1 [Example 116, trifluoroacetic acid]
  IC50: 830 nM

## COc1ccc(-c2[nH]c3ccc(C4CCN(C(=O)CNCC(C)(C)CO)CC4)cc3c2C(C)C)cc1OC [Example 219, 1-(4-(2-(3,4-dimethoxyphenyl)-3-isopropyl-1H-indol-5-yl)piperidin-1-yl)-2-((3-hydroxy-2,2-dimethylpropyl)amino)ethan-1-one]
  IC50: 2100 nM

## CCc1c(-c2ccc(OC)c(OC)c2)[nH]c2ccc(C3CCN(C(=O)C4(C)CCNCC4)CC3)cc12 [Example 187, (4-(2-(3,4-dimethoxyphenyl)-3-ethyl-1H-indol-5-yl)piperidin-1-yl)(4-methylpiperidin-4-yl)methanone]
  IC50: 1280 nM

## CCc1c(-c2ccc(OC)c(OC)c2)[nH]c2ccc(C3CCN(C(=O)CN4CCCC(C(=O)O)C4)CC3)cc12 (racemic) [Example 176, 1-(2-(4-(2-(3,4-dimethoxyphenyl)-3-ethyl-1H-indol-5-yl)piperidin-1-yl)-2-oxoethyl)piperidine-3-carboxylic acid]
  IC50: ≥ 50000 nM

## CCc1c(-c2ccc(OC)c(OC)c2)[nH]c2ccc(C3CCN(C4CCN(Cc5ccc(-c6ccccc6)s5)CC4)CC3)cc12 [Example 141, 2-(3,4-dimethoxyphenyl)-3-ethyl-5-(1′-((5-phenylthiophen-2-yl)methyl)-[1,4′-bipiperidin]-4-yl)-1H-indole]
  IC50: ≥ 50000 nM

## CCc1c(-c2ccc(OC)c(OC)c2)[nH]c2ccc(C3CCN(C(=O)CN4CCCC(C(=O)N(CC)CC)C4)CC3)cc12 (centres unmarked) [Example 168, 1-(2-(4-(2-(3,4-dimethoxyphenyl)-3-ethyl-1H-indol-5-yl)piperidin-1-yl)-2-oxoethyl)-N,N-diethylpiperidine-3-carboxamide]
  IC50: 870 nM

## CCc1c(-c2ccc(OC)c(OC)c2)[nH]c2ccc(C3CCN(C4CCN(Cc5coc(C)n5)CC4)CC3)cc12 [Example 126, 4-((4-(2-(3,4-dimethoxyphenyl)-3-ethyl-1H-indol-5-yl)-[1,4′-bipiperidin]-1′-yl)methyl)-2-methyloxazole]
  IC50: 481 nM

## COc1ccc(-c2[nH]c3cc(C)c(C4CCN(C5CCN(C(C)C)CC5)CC4)cc3c2C)cc1OC [Example 115, 2-(3,4-dimethoxyphenyl)-5-(1′-isopropyl-[1,4′-bipiperidin]-4-yl)-3,6-dimethyl-1H-indole-di-trifluoroacetic acid]
  IC50: 77 nM

## CCc1c(-c2ccc(OC)c(OC)c2)[nH]c2ccc(C3CCNCC3)cc12 [Example 122, 2-(3,4-dimethoxyphenyl)-3-ethyl-5-(piperidin-4-yl)-1H-indole]
  IC50: 1410 nM

## CCc1c(-c2ccc(OC)c(OC)c2)[nH]c2ccc(C3CCN(C(=O)CN4CCCC(C(=O)N(CC)CC)C4)CC3)cc12 (single isomer, unassigned) [Example 179, 1-(2-(4-(2-(3,4-dimethoxyphenyl)-3-ethyl-1H-indol-5-yl)piperidin-1-yl)-2-oxoethyl)-N,N-diethylpiperidine-3-carboxamide]
  IC50: 747 nM

## COc1ccc(-c2[nH]c3ccc(C4CCN(C(=O)CNCC#N)CC4)cc3c2C(C)C)cc1OC [Example 214, 2-((2-(4-(2-(3,4-dimethoxyphenyl)-3-isopropyl-1H-indol-5-yl)piperidin-1-yl)-2-oxoethyl)amino) acetonitrile]
  IC50: ≥ 50000 nM

## CCc1c(-c2ccc(OC)c(OC)c2)[nH]c2ccc(C3CCN(C(=O)CN(C)C)CC3)cc12 [Example 181, 1-(4-(2-(3,4-dimethoxyphenyl)-3-ethyl-1H-indol-5-yl)piperidin-1-yl)-2-(dimethylamino) ethanone]
  IC50: 2270 nM

## CCc1c(-c2ccc(OC)c(OC)c2)[nH]c2ccc(C3CCN(C(=O)CN4CCCC(C(=O)N(CC)CC)C4)CC3)cc12 (single isomer, unassigned) [Example 178, 1-(2-(4-(2-(3,4-dimethoxyphenyl)-3-ethyl-1H-indol-5-yl)piperidin-1-yl)-2-oxoethyl)-N,N-diethylpiperidine-3-carboxamide]
  IC50: 5230 nM

## CCc1c(-c2ccc(OC)c(OC)c2)[nH]c2cc(C)c(C3CCN(CCNC)CC3)cc12 [Example 188, 2-(4-(2-(3,4-dimethoxyphenyl)-3-ethyl-6-methyl-1H-indol-5-yl)piperidin-1-yl)-N-methylethanamine-di-trifluoroacetic acid]
  IC50: 613 nM
